Measurements published in patent US20190358264A1, “METHODS OF TREATING DISEASES ASSOCIATED WITH ILC2 CELLS” (Limm Therapeutics, SA, priority 2016, published 2019).

Tests used:
[1] = tested on: Nippostrongylus brasiliensis; test: NmU23 treatment of N. brasiliensis infected mice; assay type: in vivo, mouse
Description: FIGS. 12a-12f: (FIGS. 12a-12c) Mice were infected with N. brasiliensis larvae and treated with NmU23 peptide (8 g/day) or PBS (control). Lungs were analysed at day 2 post-infection. FIG. 12a, ILC2 response in lungs from NmU23 treated mice (n=5) compared to control (n=5). FIG. 12b, Burden of infection in lungs of infected mice treated with PBS (n=5) or NmU23 (n=5). FIG. 12c, Pulmonary hemorrhage in lung of infected mice treated with NmU23 compared to control. (FIGS. 12d-12f) Mice were infected with N. brasiliensis larvae and treated with NmU23 peptide (8 g/day) or PBS (control). Lungs and small intestine were analysed at day 6 post-infection. FIG. 12d, Neutrophils and eosinophils infiltrate in broncho-alveolar lavage (BAL) in infected mice treated with NmU23 versus PBS. Control n=5; NmU23 n=5. FIG. 12e, Mastocytes and Macrophages infiltrate in broncho-alveolar lavage (BAL) in infected mice treated with NmU23 versus PBS. Control n=5; NmU23 n=5. FIG. 12f, Burden of infection in small intestine of infected mice treated with PBS (n=5) or NmU23 (n=5). Error bars show s.e.m. *P<0.05; **P<0.01; ***P<0.001; ****P<0.0001; ns not significant.
For in vitro experiments, purified lung and small intestine lamina propria ILC2s were FBS starved for 2 hours prior to stimulation and cultured in complete RPMI (supplemented with 10% foetal bovine serum (FBS), 1% hepes, sodium pyruvate, glutamine, streptomycin and penicillin) at 37° C. For mRNA analysis, ILC2s were stimulated overnight with recombinant mouse Neuromedin U 23 peptide (NmU23, 100 ng/mL; Phoenix pharmaceuticals). Both NmU23-stimulated and control ILC2s were cultured in the presence of IL-2 and IL-7 (10 ng/mL; Peprotech). ILC2s were lysed using RLT buffer (Qiagen). For cytokine protein analysis, ILC2s were incubated exclusively with brefeldin A (eBioscience) for 12 hours prior to intracellular staining. For in vivo experiments, B6 mice were injected intraperitoneal with NmU23 peptide (2 g/day) during Nippostrongylus brasiliensis infection or with a single dose of NmU23 (20 μg) and analyzed after 8 hours. Control mice were treated with PBS alone.
Nippostrongylus brasiliensis was maintained by monthly passages in Lewis rats as previously described^34. Infective (iL3) worms were kindly provided by Nicola Harris (Lausanne, Switzerland). iL3 larvae were treated for 15 minutes with penicillin/streptomycin (300 U/mL; Thermo Fisher Scientific), gentamicin (1.5 mg/mL; Sigma) and tetracyclin (30 μg/mL; Sigma), washed with PBS and counted under a stereomicroscope. Mice were injected subcutaneously with 500 iL3 in 200 μL of sterile PBS using a 21 G needle. Mice were sacrificed at day 2 post-infection and lungs were collected and analysed.
Lung parasite burden was quantified in finely minced lungs and as previously described^34. Lung were placed on sterile cheesecloth and suspended in a 50 mL tube containing PBS at 37° C. for at least 4 hours. Viable worms that migrate out into the bottom of the tube were counted under a stereomicroscope (steREO Lumar V12; Zeiss).
Mice were sacrificed by cervical dislocation, and caudal lobe of the right lung was harvested, fixed in 10% neutral buffered formalin and processed for paraffin embedding. […] Slides were analyzed by a pathologist blinded to experimental groups and images were acquired in a Leica DM2500 microscope, coupled with a Leica MC 170 HD microscope camera. […]

[2] = tested on: intestine ILC2; test: Ki67 expression in intestine ILC2 after in vivo administration of NmU23; set-up: species or system mouse; conditions: NmU23 4 g/day during 2 days (FIG. 10b)
Description: FIGS. 10a-10d: FIG. 10a, Ki67 expression in intestinal ILC2s after an overnight in vitro stimulation with NmU23 alone (100 ng/mL, Phoenix Pharmaceutical) or NmU23 together with the survival cytokines Interleukin (IL)-2 and/or IL-7 (10 ng/mL). FIG. 10b, Ki67 expression in intestine ILC2 after in vivo administration of NmU23 (4 g/day during 2 days). n=5. FIG. 10c, ILC2-derived type 2 cytokines (IL-5, IL-13 and Amphiregulin (Areg)) in sorted intestine ILC2 after an overnight stimulation with NmU23, mouse recombinant IL-25 or IL-33 (R&D) (10, 50 and 100 ng/mL). Negative control: unstimulated ILC2, Positive control: ILC2 activated with phorbol 12-myristate 13-acetate (PMA, 50 ng/ml) plus ionomycin (500 ng/ml). n=3. FIG. 10d, Dot plots representative of the cytokine production with increasing dose of NmU23, rIL-25 and rIL-33. *P<0.05; **P<0.01; ***P<0.001; ****P<0.0001; ns not significant.

recombinant mouse Neuromedin U 23 peptide (FKAEYQSPSVGQSKGYFLFRPRN; listed as Mus musculus) [NmU23, NMUR1 agonist neuropeptide, Phoenix pharmaceuticals]
lung haemorrhage in N. brasiliensis infected mice ([1]; NmU23 8 g/day vs PBS, day 2 post-infection): reduced lung haemorrhage
ILC2-derived IL-5, IL-13 and Amphiregulin in lungs of N. brasiliensis infected mice ([1]; NmU23 8 g/day vs PBS, day 2 post-infection (FIG. 12a)): increased ILC2-derived IL-5, IL-13 and Amphiregulin
lung parasite burden in N. brasiliensis infected mice ([1]; NmU23 8 g/day vs PBS, day 2 post-infection (FIG. 12b)): decreased
intestinal parasite burden in N. brasiliensis infected mice ([1]; NmU23 8 g/day vs PBS, small intestine, day 6 post-infection (FIG. 12f)): decreased
eosinophil infiltrates in the lung of N. brasiliensis infected mice ([1]; NmU23 intraperitoneal 2 g/day vs PBS, lungs at 48 hours): increased eosinophil infiltrates
ILC2 proliferation as measured by Ki67, in vivo [2]: increased ILC2 proliferation
